The results in this text go back to a melting point compilation (Tetko et al.; mined from patent text by program, amines drawn as free bases though some values may be those of a salt).

The structures appear in SMILES notation.

The melting point is the temperature, or range, at which the solid turns liquid. In the case of `Clc1nc(C(Cl)Cl)c(Cl)s1`, the melting point was 42 to 44 °C. The result for `CC(C)CCn1cc(-c2cnc3c(c2)N(Cc2c(F)ccc(F)c2Cl)CCN3)cn1` reads 134 °C; that for `CC#CCC/C=C/CC(=O)O`, 43 to 45 °C; that for `CCCCOc1c(CN2C(=O)c3ccccc3C2=O)n(CCC(=O)O)c(=O)c2cc(Cl)c(Cl)cc12`, 196 to 197 °C. The result for `CCCC(=O)c1ccc(O)c(OC)c1` reads 40 to 41 °C; that for `CS(=O)(=O)c1ccc(-n2cnc3ccc(-c4nnc(CCc5cccc(C#N)c5)o4)cc32)cc1`, 225 to 226 °C. For `CC1OC(O)CC(NC(=O)C(F)(F)F)C1(C)O` (configuration not stated) the value was 110 to 111 °C; for `CCC(CC)Nc1cc(C)nc(Nc2c(C)cc(C)cc2C)c1CC(C(=O)OC)C(=O)OC`, 136 to 138 °C. In turn, `Cc1ccc(-c2ccc3c(c2)C=C(CN2CCC(NC(=O)C(F)(F)F)CC2)CCO3)cc1` registered a melting point of 94 to 96 °C. The result for `Cc1ccc(C(=O)NC(=O)Nc2cc3c(cc2F)/C(=C/c2[nH]c(C)c(CCC(=O)O)c2C)C(=O)N3)cc1` reads 265 to 270 °C. For `CSCCOC(=O)N(C)c1nnc(-c2cncc(F)c2)s1` the value was 104 to 106 °C; for `CCOC(=O)CC1c2cc(C(F)(F)F)ccc2C(=O)N1CC(F)(F)F` (racemic), 54.5 to 55.5 °C. Compound `COC(=O)Nc1cc(C)c(Br)cc1I` yielded a melting point of 140 to 141 °C. For `COc1ccc(C#N)c2c1OC1(CCCC1)C2` the value was 74 to 76 °C. For `CC(C)n1nc(-c2sc(NC(=O)OC(C)(C)C)nc2-c2ccccc2)ccc1=O` the value was 198 to 199 °C; for `CC1=C(C(=O)OCCCN(C)Cc2ccccc2)C(c2ccccc2C(F)(F)F)c2c(ccnc2OC(C)C)N1` (configuration not stated), 143 to 144 °C. In turn, `Cn1c([N+](=O)[O-])cnc1-c1nnc2ccc(N=CNC3CCCCC3)nn12` returned a melting point of 198 to 200 °C. For the compound `COc1cccc(-c2cc3cnc(N)nc3nc2N)c1`, the melting point was in the range of 284 to 286 °C. The result for `COc1ccc(F)cc1C(C)(C)CC(O)(Cn1cc(CO)c(=O)c2ccccc21)C(F)(F)F` (configuration not stated) reads 183 to 184 °C. The result for `CCc1ccc(-n2c(-c3ccc(SC)cc3)nc(SC)c(C#N)c2=O)cc1` reads 223 to 225 °C. `COc1ccc2c(c1)-c1noc(N3CCNCC3)c1CC2` had a melting point of 86 to 88 °C. For `Nc1cccc2c1CN(C(CCC(=O)O)C(=O)O)C2=O` (configuration not stated) the value was 183 to 185 °C. For `Cc1cc(C(=O)c2ccccc2)c(OCCCCCCCCO)cc1N(C)C` the value was 56.9 °C; for `O=C1Nc2ccccc2CN1C1CCN(Cc2ccccc2)CC1`, 204 to 206 °C; for `COC(=O)c1scc(Cl)c1N`, 62 to 64 °C. The result for `CCOCc1nc2c(N)nc3ccccc3c2n1CC1(O)CCC1` reads 174 to 175 °C.

Compound `CCCCOC(=O)C(c1ccc(O)c(C(C)(C)C)c1)c1ccc(O)c(C(C)(C)C)c1` yielded a melting point of 124 °C. In turn, `COc1cc2c(cc1F)C1(CO2)C(=O)N(CC2CCCCO2)c2ccccc21` (configuration not stated) yielded a melting point of 131 to 133 °C. In turn, `COC(=O)Cc1n[nH]c(C)c1[N+](=O)[O-]` returned a melting point of 132 to 133 °C.

As for `CCCOc1ccccc1-c1nc2nc(NCCO)ncc2c(=O)[nH]1`, the melting point lay within 204 to 206 °C. For `CC1(C)OC(=O)N(C(=O)/C=C/c2ccccc2)[C@@H]1c1ccccc1` the value was 149 °C; for `CCCCOc1c(CNC(=O)OC(C)(C)C)n(CC(C)C)c(=O)c2ccc(/C=C/C(=O)O)cc12`, 207 to 209 °C; for `O=C(OCc1ccccc1)C1(NS(=O)(=O)c2ccc(Oc3ccc(F)cc3)cc2)CCCC1`, 97 to 97.5 °C. Consider `N#Cc1nn(-c2c(Cl)cc(OC(F)(F)F)cc2Cl)c(N)c1I`, for which the melting point was found to be 150 °C. `CCCCCn1ncc2c(N)c3c(nc21)CCNC3=O` came in with a melting point of 161 to 162 °C. The result for `CCCCNS(=O)(=O)CC(O)(CCCC)C1OC(C)(C)N(C(=O)OC(C)(C)C)C1CC1CCCCC1` (configuration not stated) reads 138 to 140 °C; that for `Cc1c2n(c(=O)n(Cc3ccccc3)c1=O)CCCS2`, 141 to 142 °C; that for `CC(C)N(CCCNC(=O)Cn1ncc(-c2ccccc2)c1-c1ccccc1)C(C)C`, 83 to 84 °C. The result for `O=[N+]([O-])c1cc2ccc(C(Cl)(Cl)Cl)nc2c2nc(C(Cl)(Cl)Cl)ccc12` reads 228 to 231 °C; that for `COC(=O)c1ccc2c(c1)CN(c1c(F)cc3c(=O)c(C(=O)O)cn(-c4ccc(F)cc4F)c3c1F)C2`, 248 to 251 °C; that for `CC1(C)C2CC[C@]1(C)C(=O)C(C(=O)Nc1cc(Cl)cc(Cl)c1)C2=O` (some centres not stated), 112 to 114 °C.

Consider `CC1CCCN(c2ccc(Cl)cc2C(C)C(C(N)=O)c2ccc(C(=O)O)cc2)C1` (configuration not stated), for which the melting point lay in the range of 208 to 210 °C. The result for `Cn1ccc(NC(=S)S)n1` reads 79 to 82 °C; that for `CO[C@@H](C(=O)N[C@H]1CC[C@@H](OC(=O)C2CCCCCC2)CNC1=O)[C@H](O)[C@@H](O)[C@H](O)/C=C/C(C)(C)C`, 84 to 86 °C. Compound `COc1c(C=NO)c(=O)n(C)c(=O)n1C` gave a melting point of 127 to 128 °C. The result for `Cc1ccc(S(=O)(=O)NCCc2cccc(OCC(=O)NCc3ccccc3)c2)cc1` reads 118 to 120 °C; that for `CC(=O)c1nn[nH]c1-c1ccccc1`, 117 to 118 °C; that for `Nc1c(Cl)c(C(=O)O)nc(Cl)c1Br`, 201 to 202 °C.

As for `CC(=O)N1CCC(c2nn(-c3ccccc3)c3cc(F)ccc23)CC1`, the melting point was in the range of 126 to 128 °C. Compound `ON=c1cc(-c2cnccn2)ss1` showed a melting point of 262 °C. `COC(=O)c1cc(C(=O)N2CCC(O)CC2)cc(-n2cccc2)c1` returned a melting point of 158 to 159 °C.

As to `CCN1C(=O)CCCc2c(OC)ccc(Nc3ncc(Cl)c(Nc4ccc(N5CCOCC5)cc4OC)n3)c21`, the melting point was in the range of 218 to 220 °C. On to `CC(C)(Cc1cc(F)cc(F)c1)NCC(O)c1cc(OCc2ccccc2)cc2c1OCC(=O)N2` (configuration not stated), for which the melting point fell in the range of 150 to 158 °C. For `CC1(C)OCCC(NC(=O)c2cnccc2C(F)(F)F)O1` (configuration not stated) the value was 155 to 156 °C; for `CC(C)c1cc2cc([N+](=O)[O-])ccc2o1`, 73 °C.

As to `O=C1c2ccccc2-c2c1c1ccccc1c(=O)n2CCCNS(=O)(=O)c1ccc(Br)cc1`, the melting point fell in the range of 241 to 243 °C. For `Clc1cc(Cl)c2cccc3c2c1N=C3NCCCCn1ccnc1` the value was 187 to 188 °C. The compound `Nc1ccccc1Sc1cccc2c1C(=O)c1cccc(Sc3ccccc3N)c1C2=O` displayed a melting point of 283 to 284 °C.

As for `CC(c1oc2ccccc2c(=O)c1-c1cccc(F)c1)n1nc(-c2ccc(CN)s2)c2c(N)ncnc21` (configuration not stated), the melting point was 275 to 278 °C. Regarding `CN(C)CC(=O)Nc1ccc(Cl)c(C(=O)Nc2cccc3c4c(oc23)CCCC4)c1Cl`, the melting point was 207 °C. For `COc1cc(-n2ccc(C(F)(F)F)cc2=O)c(F)cc1C#N` the value was 194 to 196 °C.

On to `CC(Oc1ccc(O)cc1)C(=O)Nc1ccc(OC(F)(F)F)cc1` (configuration not stated), for which the melting point lay in the range of 74.5 to 75 °C.
